Test system: wild-type ribosomes
Assay: Antibiotic inhibition of orthogonal sf-gfp translation by wild-type ribosomes in cell-free system
Format: biochemical, E. coli
Details: pactamycin 100 μM
Protocol: Ribosomes (wild-type) or oRibo-T (mixed with wild-type ribosomes) were prepared from SQ171fg cells transformed with pAM552 or poRibo-T1, respectively. An orthogonal sf-gfp gene was PCR amplified from the plasmid pT7oGFP using primers […] (SEQ ID NO: 227) and […] (SEQ ID NO: 228). The transcription-translation reaction was carried out in Δ(ribosome, amino acid, tRNA) PURExpress system as described above. The 7.5 μl reactions were supplemented with 18.75 ng DNA template and 7.5 pmol ribosomes and when needed, clindamycin or pactamycin were added to the reactions to the final concentrations of 50 μM or 100 μM respectively.

For CC(=O)c1cccc(N[C@H]2[C@H](N)[C@@](NC(=O)N(C)C)([C@H](C)O)[C@@](C)(O)[C@@]2(O)COC(=O)c2c(C)cccc2O)c1 [Pactamycin], the “inhibition of the activity of wild-type ribosomes in the PURE translation system” value was “completely inhibited”.

From US10590456B2, “Ribosomes with tethered subunits” (Northwestern University, priority 2014, dated 2020)
